Data taken from US20190079094A1, “SUBCELLULAR LOCALIZATION OF TARGET ANALYTES” (Beckman Coulter, Inc., priority 2016, published 2019).
“Also recorded” adds a separate entry of the source.

How the values were obtained:
[1] = tested on: Lymphocytes and Monocytes in whole blood; experiment: Performance of detergents with whole blood (alternative approaches); format: cell-based; conditions: for concentration at which surface markers are lost and cells disintegrate: Buffer 2 upper bound
Procedure: An exemplary kit is composed of two separate buffers for whole-blood mononuclear cells (i.e., lymphocytes+monocytes): 1) The first buffer is to permeabilize the cytoplasm, including the ER, the endosomal system, and the outer mitochondrial membrane, while 2) the second buffer is to permeabilize everything permeabilized by the first buffer, plus the nucleus (and, in some embodiments, the inner mitochondrial matrix). Buffer 1 (Cytoplasm) may be composed of: 1-100 mM MES pH 4.5-6.5, 0-274 mM NaCl, 0-5.4 mM KCl, and 0.01-0.15% Digitonin. The optimal detergent concentration for Buffer 1 is between […] Digitonin, where the cytoplasm is lysed but the nucleus is not. Buffer 2 (Whole Cell) may be composed of: 1-100 mM MES pH 4.5-6.5, 0-274 mM NaCl, 0-5.4 mM KCl, and >0.01% Digitonin or >0.0125% Triton X-100. The optimal detergent concentration for Buffer 2 depends on the sample type, with the upper bound limited by the loss of surface markers and the disintegration of cells that occurs around 2% for both.
The methods of the invention rely on different detergents or detergent concentrations in order to gently lyse the cytoplasm plus as many cytoplasmic components as possible in one tube, and the whole cell including the nucleus in the other tube. For this reason, a variety of detergents will work to accomplish this task. Some are as follows, with reference to their performance with whole blood: […]

[2] = Precipitation of detergent from solution at reduced pH; format: physicochemical; conditions: regardless of the concentration
Source text: However, the performance of CHAPS decreases at lower pHs, and Sodium Deoxycholate immediately precipitates out of solution at pHs lower than ˜7.0 regardless of the concentration. Therefore, these may be useful for PBMCs or cell lines where a reduced pH is not necessary, but not for whole blood.

[3] = tested on: T cells and monocytes in whole blood; experiment: Digitonin and TX-100 titration on whole blood, flow cytometry (CytoCalcein Violet loss, HDAC1 staining); format: cell-based; conditions: for concentration at which the nucleus is also permeabilized: peaked HDAC1 staining
Source text: (§1) FIGS. 2A and 2B. Digitonin and TX-100 Titrations to Determine the Optimal Concentrations for Cytoplasmic vs. Nuclear Membrane Permeabilization. A) The cytoplasmic membrane in whole blood is fully permeabilized around 0.031% Digitonin, while the nucleus is also permeabilized around 0.5% Digitonin or 0.125% TX-100. B) The cytoplasmic membrane in PBMCs is fully permeabilized around 0.0016% Digitonin, while the nucleus is also permeabilized around 0.05% Digitonin or 0.025% TX-100. In this figure, the reduction in Calcein signal is indicative of permeabilization of the plasma membrane, while the peaked HDAC1 staining indicates complete nuclear permeabilization. The ledge that forms with HDAC1 prior to complete lysis is due to lysis of the endoplasmic reticulum, which also contains HDAC1.
(§2) FIG. 2 is a comparison of the efficiency of cytoplasmic vs. nuclear permeabilization of T cells and monocytes by different concentrations of Digitonin or TX-100. FIG. 2A is a titration performed on whole blood, while FIG. 2B is a titration performed on PBMCs. In both cases, the samples were first preloaded for 1 hour with 1 μM CytoCalcein Violet (AAT Bioquest, Inc) in a CO2-regulated 37° C. incubator. After 1 hour, the samples were fixed for 10 min with 4% PFA, and then incubated for 30 min at RT with the different concentrations of detergents diluted in diH2O, at a 1:5 ratio with the sample mixture. The samples were then washed and stained with anti-HDAC1-FITC (Abcam, Plc), washed again, and finally read on a Gallios flow cytometer (BCI). In this figure, cytoplasmic lysis is indicated by the loss of CytoCalcein Violet signal as it is released from the cell once the plasma membrane is permeabilized, while nuclear lysis is indicated by the increased HDAC1 signal as the nuclear membrane is permeabilized. In the case of Digitonin lysis, there is a ledge of HDAC1 staining once the plasma membrane is lysed and prior to full nuclear lysis; this is indicative of lysis of the endoplasmic reticulum, which also contains a repository of HDAC1. In whole blood, there is a working range for Digitonin between roughly 0.015% and 0.125%, where the plasma membrane is lysed, but the nucleus is not. For PBMCs, this range is roughly between 0.001% and 0.0125%.

[4] = tested on: T cells and monocytes in PBMCs; experiment: Digitonin and TX-100 titration on PBMCs, flow cytometry (CytoCalcein Violet loss, HDAC1 staining); format: cell-based; conditions: for concentration at which the nucleus is also permeabilized: peaked HDAC1 staining
Source text: as §1, §2

[5] = tested on: MCF-7 cells; experiment: Modified protocol with MCF-7 cells preloaded with CytoCalcein Violet; format: cell-based, human; conditions: for concentration permeabilizing only the plasma (cytoplasmic) membrane: loss of CytoCalcein Violet
Procedure: FIG. 4. Modified Protocol to Assess the Permeabilization of the Plasma Membrane with MCF-7 Cells. The cells were preloaded with CytoCalcein Violet, and cytoplasmic membrane permeabilization is indicated by the loss of this signal. In this experiment, 0.025% Digitonin or TX-100 permeabilized only the cytoplasm, while 0.25% of either fully permeabilized the both cytoplasmic and nuclear membranes.
In this experiment, after the cells had been plated for 24 hours, they were preloaded for 1 hour with 1 μM CytoCalcein Violet and then processed as indicated in FIG. 3. When the samples were ready for cover-slipping, mounting medium without DAPI was used. Images were captured on a Zeiss Axioskop 2 Plus microscope together with a 63× oil-immersion lens. In this figure, MCF-7 cells that were not permeabilized can be seen to be loaded with CytoCalcein Violet, and this staining is lost once the plasma membrane is permeabilized. […] In this experiment, 0.025% of both Digitonin and TX-100 can be seen to permeabilize the plasma membrane, while 0.25% of both can be seen to permeabilize the whole cell. This modified protocol was used for subsequent testing of the performance of the different detergents with whole blood and PBMCs by flow cytometry, including for the results in FIG. 2.

[6] = tested on: T cells and monocytes in whole blood; experiment: Optimal lysis parameters for whole blood in MES-buffered solution (HSP60, Lamin A/C); format: cell-based; conditions: 5% fixative
Source text: FIGS. 5A and 5B. Cytoplasmic vs. Nuclear Membrane Permeabilization in a Whole Blood Sample using the Optimal Buffer Compositions. A) The CD45 vs. SS and FS vs. SS profiles of the samples after lysis. B) The degree of mitochondrial vs. nuclear membrane permeabilization in T cells. C) The degree of mitochondrial vs. nuclear membrane permeabilization in Monocytes. All of the detergent concentrations used in this experiment fully permeabilized the plasma membrane, while HSP60 and Lamin A/C indicate the degree of mitochondrial inner membrane and nuclear membrane permeabilization, respectively.
FIG. 5 indicates the optimal lysis parameters for whole blood, including modified buffer conditions in order to improve RBC lysis. […] In order to improve RBC lysis, the solution was ultimately buffered with MES at a pH between 4.5-6.5 (such as a pH of 5.5), which also allowed the salt concentration to be increased to physiological levels. This further improved the scatter profiles of the WBCs, decreased the time required for complete lysis to approximately 15 minutes, and improved the RBC lysis efficiency to the point that the buffers still work well if the fixation time is extended well beyond protocol (>20 min). At the same time, the fixative concentration was increased to 5% due to improved performance. In FIG. 5A, the scatter profiles for the optimal lysis parameters can be seen, where 0.0625% Digitonin is optimal for cytoplasmic membrane permeabilization, and either 0.5% Digitonin or 0.25% TX-100 are optimal for whole-cell membrane permeabilization. […] In both cases, the permeabilization profiles can be seen to be consistent with the defined optimal detergent concentrations.

[7] = tested on: CREB, RelA and ERK phosphorylation in monocytes; experiment: Stimulation of monocytes with LPS or GM-CSF, cytoplasmic vs. nuclear signaling; format: cell-based; conditions: 1 μg/mL LPS or 100 ng/mL GM-CSF
Procedure: FIG. 8. Differential Signaling in Monocytes Induced by 1 μg/mL LPS vs. 100 ng/mL GM-CSF. A) Both LPS and GM-CSF induced CREB phosphorylation at S133, accumulating maximally in the nucleus by 10 min. B) LPS stimulation induced RelA phosphorylation maximally by 10 min in both the cytoplasm and nucleus, though predominantly in the nucleus. C) Both LPS and GM-CSF stimulated ERK phosphorylation primarily in the cytoplasm, maximally by 5 min for GM-CSF and 10 min for LPS.
The protocol for processing whole blood samples is as follows (see FIG. 1 for a workflow): 1) The sample is first mixed 1:1 with fixative, vortexed, and then incubated for 10 minutes. An extra control tube is included for each buffer, which is stained with all antibodies except for the specific signaling or target antibodies being tested in order to subtract the background signal. The background control may also be labeled with isotype-control antibodies for more precise determination of non-specific binding, especially in cells that have characteristically high non-specific binding, such as neutrophils. For indirect antibody labeling, omitting the primary antibody, but still utilizing the secondary antibody, is a common method for determining the degree of non-specific background signal attributable to the secondary antibody, which is typically higher than the direct conjugates of target antibodies. […] 6) Once stained, the samples are again washed 2× with PBS or wash buffer, resuspended in PBS+0.5% PFA, and read on a flow cytometer.
After data acquisition, the samples are gated, compensated, and analyzed as standard flow cytometry samples. […] For example, if staining for the subcellular distribution of FoxP3, where the Background MFIs for the Cytoplasm and Whole Cell are 1.5 and the raw FoxP3 signal is 3.5 and 31.5 for the Cytoplasm and Whole Cell, respectively, then the Cytoplasmic MFI would be calculated to be 2 (i.e., 3.5 (raw)−1.5 (background)=2) and the Nuclear MFI would be calculated to be 28 (i.e., 31.5 (raw)−1.5 (background)−2 (Cytoplasm)=28). […]

Row | Compound | concentration for complete lysis of the cells [3] | concentration at which the nucleus is also permeabilized [3] | concentration for complete lysis of the cells [4] | concentration at which the nucleus is also permeabilized [4] | concentration permeabilizing the whole cell (cytoplasmic and nuclear membranes) [5] | concentration permeabilizing only the plasma (cytoplasmic) membrane [5] | optimal concentration for whole-cell membrane permeabilization [6] | concentration at which surface markers are lost and cells disintegrate [1] | other results
1 | Octylphenoxypoly(ethylene-oxy)ethanol [NP-40] |  |  |  |  |  |  |  |  | performance compared with TX-100 ([1]; whole blood): performs equivalently to TX-100; also recorded: interchangeable with TX-100 for whole-cell permeabilization
2 | Sodium Deoxycholate |  |  |  |  |  |  |  |  | pH below which the detergent immediately precipitates out of solution [2]: < 7.0
3 | C[C@@H]1CC[C@@]2(OC1)O[C@H]1[C@@H](O)[C@H]3[C@@H]4CC[C@H]5C[C@@H](O[C@@H]6O[C@H](CO)[C@H](O[C@@H]7O[C@H](CO)[C@@H](O)[C@H](O[C@@H]8OC[C@@H](O)[C@H](O)[C@H]8O)[C@H]7O[C@@H]7O[C@H](CO)[C@H](O)[C@H](O[C@@H]8O[C@H](CO)[C@@H](O)[C@H](O)[C@H]8O)[C@H]7O)[C@H](O)[C@H]6O)[C@H](O)C[C@]5(C)[C@H]4CC[C@]3(C)[C@H]1[C@@H]2C [Digitonin] | 0.25% | around 0.5% | 0.025% | around 0.05% | 0.25% | 0.025% | 0.5% | around 2% | concentration at which the cytoplasmic membrane is fully permeabilized ([3]; reduction in Calcein signal): around 0.031%; concentration at which the cytoplasmic membrane is fully permeabilized ([4]; reduction in Calcein signal): around 0.0016%; optimal concentration for cytoplasmic membrane permeabilization [6]: 0.0625%
4 | ethyoxylated octylphenol [TX-100] | 0.125% | ~0.125% | 0.025% | ~0.025% | 0.25% | 0.025% | 0.25% | around 2% | working range where the plasma membrane is lysed but the nucleus is not [3]: does not provide this working range
5 | GM-CSF: cytokine activator reagent |  |  |  |  |  |  |  |  | time of peak RelA S536 phosphorylation [7]: did not stimulate RelA phosphorylation at S536; time of peak ERK phosphorylation (S202/T204) ([7]; primarily cytoplasm): ≤ 5 min
